Experiment [1] concerns human p75-TNF-R versus human p55-TNF-R. Kind of experiment: Selectivity factor S from competitive binding to p75-TNF-R and p55-TNF-R. The conditions noted are these: based on IC50 p75-TNF-R and IC50 p55-TNF-R (Table F, FIGS. 10A-10E). As for the experimental part: (§1) The filters were blocked with blocking buffer (50 mM Tris, 140 mM NaCl, 5 mM EDTA, 0.02% NaN3, 1% defatted milk powder) for 1.5 hours at room temperature. […] The filters were washed with blocking buffer (2× for 5 min.) and with H2 O (1× for 5 min.), air dried, and counted in a γ-counter.
After three hours at room temperature the wells were thoroughly washed with PBS and counted in a γ-counter.

The next experiment concerns Hep-2 cells. The experiment is classed as cell-based, human. The conditions noted are these: in words; accuracy of assay a factor of 3. The procedure: (§2) The amount of protein was determined by the Biorad (Richmond, Calif., USA) protein dye reagent according to the instructions of the manufacturer. The purity of the TNF muteins was determined by SDS-PAGE. The cytotoxic activity on mouse L929 cells was determined using the standard L929 assay (Ruff and Gifford in "Lymphokines", ed. by E. Pick, Vol. 2, 235-275, Academic Press, 1981, Orlando, USA). The cytotoxicity assay on Hep-2 cells was performed the same way as the L929 assay with the only exception that cycloheximide (50 μg/ml) was added instead of actinomycin D.

In the next experiment the test system is mouse L929 cells. The experiment in a line: Standard L929 cytotoxicity assay. The experiment is classed as cell-based. The conditions noted are these: relative to TNF-α. The procedure:
as §2

In the next experiment the test system is human p55-TNF-R. The experiment in a line: Filter binding competition of 125I-TNFα on purified p55-TNF-R from HL60 cells. Particulars: with respect to TNFα. As for the experimental part: as §1
For experiment [2], the system named is Hep-2 cells (only carry p55-TNF-R). Kind of experiment: Competition analysis: displacement of 125I-TNF-α by unlabeled mutant TNF on Hep-2 cells. The experiment is classed as binding, human. Particulars: for Mean dpm: Table C. As for the experimental part: (§3) Hep-2 [ATCC No. CCL 23], U937 [ATCC No. CRL 1593] and RAJI [ATCC No. CCL 86] cells were grown in RPMI 1640 medium, supplemented with 10% (v/v) inactivated .fetal calf serum, L-glutamine (2 mM), sodium pyruvate (1 mM), 2-mercaptoethanol (5×10^-5 M), 1% of a 100× mixture of non-essential amino acids [Gibro Laboratories, Paisley, GB] and gentamycine ([…]). The non-adherent cells (U937 and RAJI) were harvested after reaching a density of 1×10^6 cells/ml. For binding experiments, the adherent Hep-2 cells were grown to confluency, trypsinized, collected and seeded in large. Petri dishes (150 cm^2) at a density of 2.5×10^6 cells/ml. Subsequently, the dishes were placed in a CO2 -incubator overnight. Because Hep-2 cells are not strongly adherent, the cells could be harvested the same way as the non-adherent cells. Dulbecco's medium, supplemented with 10% inactivated newborn calf serum was used for L929 cell growth. […] A ten well dilution series of unlabeled mutant TNF ([…] to 0.004 μM) in concentration steps in multiples of 2 was set up in a microtiterplate. […] After addition of 2×10^6 cells, the total volume was 0.2 ml/well. The medium of incubation, reaction conditions and isolation of the cells were exactly the same as described above for the Scatchard analysis experiments. […] The following experimental data were used for such calculations: From each experiment shown in these tables, the KD value was calculated using the programm of Mc. Pherson et al. (1985).

For experiment [3], the system named is U937 cells (predominantly but not exclusively p75-TNF-R). Kind of experiment: Competition analysis: displacement of 125I-TNF-α by unlabeled mutant TNF on U937 cells. The conditions noted are these: for Mean dpm: Table A. It is filed as binding, human. The procedure: as §3
The next experiment relates to human p75-TNF-R. Kind of experiment: Filter binding competition of 125I-TNFα on purified p75-TNF-R from HL60 cells. As for the experimental part:
as §1

The results in this text go back to patent US5652353A, “DNAs encoding tumor necrosis factor-α muteins” (priority 1990, dated 1997).

With “Tyr^32 -TNFα: TNF-α mutein with tyrosine substituted at position 32, SEQ ID No: 10”, the “selectivity factor S” value in experiment [1] is given as 90.
With “Ser^29 -TNFα: TNF-α mutein with serine substituted at position 29, SEQ ID No: 4”, in the experiment with Hep-2 cells, the “biological activity (specific activity) on Hep-2 cells” value is listed as “largely retained”. The “decrease of biological activity on L929 cells (factor)” value in the experiment with mouse L929 cells is given as “more than 100”. Besides, the entries for the “Decrease in Affinity” value with human p55-TNF-R and in the experiment on human p75-TNF-R (with respect to TNFα) were 8.2 fold and 250 fold, respectively. The Mean dpm is reported as 359 dpm in experiment [2] (experiment 1, Hep-2 cells, concentration of mutant 1 × 10^-6); 799 dpm in experiment [2] (experiment 1, Hep-2 cells, concentration of mutant 1 × 10^-9); 379 dpm in experiment [2] (experiment 1, Hep-2 cells, concentration of mutant 1.25 × 10^-7); 383 dpm in experiment [2] (experiment 1, Hep-2 cells, concentration of mutant 2 × 10^-6); 677 dpm in experiment [2] (experiment 1, Hep-2 cells, concentration of mutant 2 × 10^-9); 442 dpm in experiment [2] (experiment 1, Hep-2 cells, concentration of mutant 3.2 × 10^-8). The Mean dpm in experiment [2] (experiment 1, Hep-2 cells, concentration of mutant 4 × 10^-9) is 564 dpm; in experiment [2] (experiment 1, Hep-2 cells, concentration of mutant 5 × 10^-7) it was 437 dpm; in experiment [2] (experiment 1, Hep-2 cells, concentration of mutant 6.4 × 10^-8) it was 446 dpm; in experiment [2] (experiment 1, Hep-2 cells, concentration of mutant 8 × 10^-9), 510 dpm; in experiment [2] (experiment 1, Hep-2 cells, concentration of mutant […] 10^-7) it was 374 dpm; in experiment [2] (experiment 1, Hep-2 cells, concentration of mutant […] 10^-8), 451 dpm. In addition, the Mean dpm in experiment [2] (experiment 2, Hep-2 cells, concentration of mutant 1 × 10^-6) was found to be 193 dpm; in experiment [2] (experiment 2, Hep-2 cells, concentration of mutant 1.2 × 10^-7), 239 dpm; in experiment [2] (experiment 2, Hep-2 cells, concentration of mutant 1.5 × 10^-8), 253 dpm; in experiment [2] (experiment 2, Hep-2 cells, concentration of mutant 2 × 10^-6) it was 238 dpm; in experiment [2] (experiment 2, Hep-2 cells, concentration of mutant 3 × 10^-8), 235 dpm; in experiment [2] (experiment 2, Hep-2 cells, concentration of mutant 4 × 10^-9), 273 dpm. For the same substance, the Mean dpm came out at 211 dpm in experiment [2] (experiment 2, Hep-2 cells, concentration of mutant 5 × 10^-7); 207 dpm in experiment [2] (experiment 2, Hep-2 cells, concentration of mutant 6 × 10^-8); 240 dpm in experiment [2] (experiment 2, Hep-2 cells, concentration of mutant 8 × 10^-9); 632 dpm in experiment [3] (experiment 1, U937 cells, concentration of mutant 1 × 10^-6 [mol]); 1869 dpm in experiment [3] (experiment 1, U937 cells, concentration of mutant 1 × 10^-9 [mol]); 1200 dpm in experiment [3] (experiment 1, U937 cells, concentration of mutant 1.25 × 10^-7 [mol]). Moreover, the Mean dpm in experiment [3] (experiment 1, U937 cells, concentration of mutant 2 × 10^-6 [mol]) is recorded as 533 dpm; in experiment [3] (experiment 1, U937 cells, concentration of mutant 2 × 10^-9 [mol]), 1779 dpm; in experiment [3] (experiment 1, U937 cells, concentration of mutant 3.2 × 10^-8 [mol]) it was 1415 dpm; in experiment [3] (experiment 1, U937 cells, concentration of mutant 4 × 10^-9 [mol]), 1719 dpm; in experiment [3] (experiment 1, U937 cells, concentration of mutant 5 × 10^-7 [mol]) it was 949 dpm; in experiment [3] (experiment 1, U937 cells, concentration of mutant 6.4 × 10^-8 [mol]) it was 1320 dpm. Moreover, the Mean dpm in experiment [3] (experiment 1, U937 cells, concentration of mutant 8 × 10^-9 [mol]) is 1708 dpm; in experiment [3] (experiment 1, U937 cells, concentration of mutant […] 10^-7 [mol]), 983 dpm; in experiment [3] (experiment 1, U937 cells, concentration of mutant […] 10^-8 [mol]), 1575 dpm; in experiment [3] (experiment 2, U937 cells, concentration of mutant 1 × 10^-6 [mol]), 263 dpm; in experiment [3] (experiment 2, U937 cells, concentration of mutant 1.2 × 10^-7 [mol]) it was 413 dpm; in experiment [3] (experiment 2, U937 cells, concentration of mutant 1.5 × 10^-8 [mol]), 541 dpm. Also, the Mean dpm in experiment [3] (experiment 2, U937 cells, concentration of mutant 2 × 10^-6 [mol]) is given as 238 dpm; in experiment [3] (experiment 2, U937 cells, concentration of mutant 3 × 10^-8 [mol]), 572 dpm; in experiment [3] (experiment 2, U937 cells, concentration of mutant 4 × 10^-9 [mol]), 635 dpm; in experiment [3] (experiment 2, U937 cells, concentration of mutant 5 × 10^-7 [mol]), 319 dpm; in experiment [3] (experiment 2, U937 cells, concentration of mutant 6 × 10^-8 [mol]), 489 dpm; in experiment [3] (experiment 2, U937 cells, concentration of mutant 8 × 10^-9 [mol]), 603 dpm. The Mean dpm in experiment [3] (experiment 2, U937 cells, concentration of mutant […] 10^-7 [mol]) came to 380 dpm. In experiment [2] (in words), the “binding constant (KD) with Hep-2 cells compared with TNF-α” value is “almost the same as TNF-α”. Further, in experiment [3], the “binding affinity for p75-TNF-R as share of its binding affinity to p55-TNF-R” value is “about 2%”. The “reduction of binding affinity for p75-TNF-R” value in experiment [3] (relative to its binding affinity to p55-TNF-R) is on record as “approximately 50 fold”. The substance also yielded an IC50 in the experiment on human p75-TNF-R (competition with 125I-TNFα) of 2.5 µg/mL.
“Tyr^29 -TNFα: TNF-α mutein with tyrosine substituted at position 29, SEQ ID No: 6”: the “selectivity factor S” value in experiment [1] is 110.
